Structures are written as SMILES.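 Growth conditions: 96-well plates. Treatment: test compound, 48 hours, 5 concentrations. Analysis: linear interpolation between bracketing concentrations; unreached endpoints set to highest concentration. GI50: concentration for 50% inhibition of growth. Definition used: TGI = concentration required for complete inhibition of growth.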

One experiment concerns U251 CNS. The experiment can be described thus: growth of human tumour cells (NCI), 48 h.
For the compound `N#Cc1c(NC(=S)NC(=O)c2ccccc2)nc2c(c1-c1ccccc1)CCC2`, the TGI was greater than 100 µM.
Take `O=C(Nc1ccc(I)cc1C(=O)NCCO)c1cccs1`: the TGI was greater than 100 µM.
Consider `CCn1cc(C(c2ccc(Cl)cc2)n2ccnc2)c2cc(Br)ccc21` (stereo not given), for which the TGI was 30.5 µM.
Compound `CSC1=Nc2ccccc2N(C)c2c1c(-c1ccccc1)nn2C` registered a TGI greater than 100 µM.
For `O=[Se]([O-])c1ccccc1.O=[Se]([O-])c1ccccc1.[OH3+].[OH3+].[Pt+2]`, the GI50 is 9.51 µM and the TGI amounted to 17.2 µM.
As for `COC1OC(=O)[C@H]2O[N+]([O-])=C(C)[C@@H]12` (stereo not given in full), the TGI is greater than 100 µM.

The next experiment has as its system UACC-257 melanoma. The experiment can be described thus: growth of human tumour cells (NCI), 48 h.
`N#Cc1c(NC(=S)NC(=O)c2ccccc2)nc2c(c1-c1ccccc1)CCC2` had a TGI greater than 100 µM.
The same measure, in the same setting: in the case of `O=C(Nc1ccc(I)cc1C(=O)NCCO)c1cccs1` it was greater than 100 µM; in that of `CCn1cc(C(c2ccc(Cl)cc2)n2ccnc2)c2cc(Br)ccc21` (stereo not given), 31.4 µM; in that of `CSC1=Nc2ccccc2N(C)c2c1c(-c1ccccc1)nn2C`, greater than 100 µM.
Take `O=[Se]([O-])c1ccccc1.O=[Se]([O-])c1ccccc1.[OH3+].[OH3+].[Pt+2]`: the GI50 was 2.96 µM and the TGI was determined as 11.8 µM.
`COC1OC(=O)[C@H]2O[N+]([O-])=C(C)[C@@H]12` (stereo not given in full): the TGI was greater than 100 µM.

The next experiment deals with EKVX NSCLC. The experiment can be described thus: growth of human tumour cells (NCI), 48 h.
For the compound `N#Cc1c(NC(=S)NC(=O)c2ccccc2)nc2c(c1-c1ccccc1)CCC2`, the TGI was greater than 100 µM.
As for `O=C(Nc1ccc(I)cc1C(=O)NCCO)c1cccs1`, the TGI is greater than 100 µM.
Turning to `CCn1cc(C(c2ccc(Cl)cc2)n2ccnc2)c2cc(Br)ccc21` (stereo not given), the TGI was greater than 100 µM.
The compound `CSC1=Nc2ccccc2N(C)c2c1c(-c1ccccc1)nn2C` yielded a TGI greater than 100 µM.
`O=[Se]([O-])c1ccccc1.O=[Se]([O-])c1ccccc1.[OH3+].[OH3+].[Pt+2]`: the GI50 was 6.34 µM and the TGI came out at 26 µM.
`COC1OC(=O)[C@H]2O[N+]([O-])=C(C)[C@@H]12` (stereo not given in full) returned a TGI greater than 100 µM.

The subject of another experiment is LOX IMVI melanoma. As to the kind of experiment: growth of human tumour cells (NCI), 48 h.
`N#Cc1c(NC(=S)NC(=O)c2ccccc2)nc2c(c1-c1ccccc1)CCC2` gave a TGI greater than 100 µM.
Still for that read-out and setting: in the case of `O=C(Nc1ccc(I)cc1C(=O)NCCO)c1cccs1` it was greater than 100 µM; in that of `CCn1cc(C(c2ccc(Cl)cc2)n2ccnc2)c2cc(Br)ccc21` (stereo not given), 28.2 µM.
`CSC1=Nc2ccccc2N(C)c2c1c(-c1ccccc1)nn2C` registered a TGI greater than 100 µM.
As to `O=[Se]([O-])c1ccccc1.O=[Se]([O-])c1ccccc1.[OH3+].[OH3+].[Pt+2]`, the GI50 is 3.42 µM and the TGI turned out to be 19.2 µM.
As to `COC1OC(=O)[C@H]2O[N+]([O-])=C(C)[C@@H]12` (stereo not given in full), the TGI is greater than 100 µM.

In a further experiment the test system is OVCAR-8 ovarian. The experiment can be described thus: growth of human tumour cells (NCI), 48 h.
`N#Cc1c(NC(=S)NC(=O)c2ccccc2)nc2c(c1-c1ccccc1)CCC2` yielded a TGI greater than 100 µM.
On the same count and under the same terms, in the case of `O=C(Nc1ccc(I)cc1C(=O)NCCO)c1cccs1` it was greater than 100 µM; in that of `CCn1cc(C(c2ccc(Cl)cc2)n2ccnc2)c2cc(Br)ccc21` (stereo not given), 31.6 µM; in that of `CSC1=Nc2ccccc2N(C)c2c1c(-c1ccccc1)nn2C`, greater than 100 µM.
As for `O=[Se]([O-])c1ccccc1.O=[Se]([O-])c1ccccc1.[OH3+].[OH3+].[Pt+2]`, the GI50 was 3.03 µM and the TGI came to 20.2 µM.
With `COC1OC(=O)[C@H]2O[N+]([O-])=C(C)[C@@H]12` (stereo not given in full), the TGI was greater than 100 µM.

A further experiment deals with HCT-116 colon. The experiment can be described thus: growth of human tumour cells (NCI), 48 h.
`N#Cc1c(NC(=S)NC(=O)c2ccccc2)nc2c(c1-c1ccccc1)CCC2`: the TGI is greater than 100 µM.
Same read-out and setting: next, `O=C(Nc1ccc(I)cc1C(=O)NCCO)c1cccs1`: greater than 100 µM; `CCn1cc(C(c2ccc(Cl)cc2)n2ccnc2)c2cc(Br)ccc21` (stereo not given): 33.8 µM.
Still for that read-out and setting: in the case of `CSC1=Nc2ccccc2N(C)c2c1c(-c1ccccc1)nn2C` it was greater than 100 µM.
With `O=[Se]([O-])c1ccccc1.O=[Se]([O-])c1ccccc1.[OH3+].[OH3+].[Pt+2]`, the GI50 was 3.14 µM and the TGI turned out to be 9.5 µM.
In the case of `COC1OC(=O)[C@H]2O[N+]([O-])=C(C)[C@@H]12` (stereo not given in full), the TGI was greater than 100 µM.

The next experiment concerns OVCAR-3 ovarian. As to the kind of experiment: growth of human tumour cells (NCI), 48 h.
`N#Cc1c(NC(=S)NC(=O)c2ccccc2)nc2c(c1-c1ccccc1)CCC2` returned a TGI greater than 100 µM.
On the same count and under the same terms, next, `O=C(Nc1ccc(I)cc1C(=O)NCCO)c1cccs1`: greater than 100 µM.
In turn, `CCn1cc(C(c2ccc(Cl)cc2)n2ccnc2)c2cc(Br)ccc21` (stereo not given) registered a TGI of 22.2 µM.
Still for that read-out and setting: in the case of `CSC1=Nc2ccccc2N(C)c2c1c(-c1ccccc1)nn2C` it was greater than 100 µM.
For the compound `O=[Se]([O-])c1ccccc1.O=[Se]([O-])c1ccccc1.[OH3+].[OH3+].[Pt+2]`, the GI50 was 7.91 µM and the TGI was 32.8 µM.
`COC1OC(=O)[C@H]2O[N+]([O-])=C(C)[C@@H]12` (stereo not given in full): the TGI was greater than 100 µM.

Another experiment concerns K-562 leukemia. As to the kind of experiment: growth of human tumour cells (NCI), 48 h.
With `N#Cc1c(NC(=S)NC(=O)c2ccccc2)nc2c(c1-c1ccccc1)CCC2`, the TGI is greater than 100 µM.
The same measure, in the same setting: in the case of `O=C(Nc1ccc(I)cc1C(=O)NCCO)c1cccs1` it was greater than 100 µM.
Same read-out and setting: in the case of `CCn1cc(C(c2ccc(Cl)cc2)n2ccnc2)c2cc(Br)ccc21` (stereo not given) it was 33.5 µM.
For `CSC1=Nc2ccccc2N(C)c2c1c(-c1ccccc1)nn2C`, the TGI amounted to 55.9 µM.
In the case of `O=[Se]([O-])c1ccccc1.O=[Se]([O-])c1ccccc1.[OH3+].[OH3+].[Pt+2]`, the GI50 is 10 µM and the TGI came out at 34.6 µM.
In turn, `COC1OC(=O)[C@H]2O[N+]([O-])=C(C)[C@@H]12` (stereo not given in full) came in with a TGI greater than 100 µM.

Another experiment has as its system RPMI-8226 leukemia. As to the kind of experiment: growth of human tumour cells (NCI), 48 h.
`N#Cc1c(NC(=S)NC(=O)c2ccccc2)nc2c(c1-c1ccccc1)CCC2` displayed a TGI greater than 100 µM.
Consider `O=C(Nc1ccc(I)cc1C(=O)NCCO)c1cccs1`, for which the TGI is greater than 100 µM.
For the compound `CCn1cc(C(c2ccc(Cl)cc2)n2ccnc2)c2cc(Br)ccc21` (stereo not given), the TGI was 75 µM.
On to `CSC1=Nc2ccccc2N(C)c2c1c(-c1ccccc1)nn2C`, for which the TGI came to 37.1 µM.
Turning to `O=[Se]([O-])c1ccccc1.O=[Se]([O-])c1ccccc1.[OH3+].[OH3+].[Pt+2]`, the GI50 was 5.41 µM and the TGI came out at 39.7 µM.
With `COC1OC(=O)[C@H]2O[N+]([O-])=C(C)[C@@H]12` (stereo not given in full), the TGI was greater than 100 µM.

The subject of a further experiment is HCT-15 colon. The experiment can be described thus: growth of human tumour cells (NCI), 48 h.
`N#Cc1c(NC(=S)NC(=O)c2ccccc2)nc2c(c1-c1ccccc1)CCC2`: the TGI was greater than 100 µM.
As to `O=C(Nc1ccc(I)cc1C(=O)NCCO)c1cccs1`, the TGI is greater than 100 µM.
Same read-out and setting: next, `CCn1cc(C(c2ccc(Cl)cc2)n2ccnc2)c2cc(Br)ccc21` (stereo not given): 30.6 µM; `CSC1=Nc2ccccc2N(C)c2c1c(-c1ccccc1)nn2C`: greater than 100 µM.
Regarding `O=[Se]([O-])c1ccccc1.O=[Se]([O-])c1ccccc1.[OH3+].[OH3+].[Pt+2]`, the GI50 was 6.02 µM and the TGI was 28.6 µM.
Take `COC1OC(=O)[C@H]2O[N+]([O-])=C(C)[C@@H]12` (stereo not given in full): the TGI was greater than 100 µM.
